# Reference: ChEMBL document CHEMBL4251553, “Synthesis, anticancer evaluation and pharmacokinetic study of novel 10-O-phenyl ethers of dihydroartemisinin” (Eur J Med Chem, 2017)
# Assays:
# [1] = Plasma concentration in Sprague-Dawley rat at 10 mg/kg, iv administered as single dose measured at 0.5 hrs post dosing by LC-MS/MS analysis; format: ADME, organism-based
# MCF7 [2] = test: Cell cycle arrest in human MCF7 cells assessed as accumulation at G2/M phase at 0.5 uM after 48 hrs by propidium iodide staining based flow cytometry (reference value: 24.26%); format: functional
# MCF7 [3] = test: Cell cycle arrest in human MCF7 cells assessed as accumulation at G0/G1 phase at 0.5 uM after 48 hrs by propidium iodide staining based flow cytometry (reference value: 57.21%); format: functional
# NCI/ADR-RES [4] = test: Cell cycle arrest in human MCF7/ADR cells assessed as accumulation at S-phase at 1 uM after 24 hrs by propidium iodide staining based flow cytometry (reference value: 25.87%); format: functional
# NCI/ADR-RES [5] = test: Cell cycle arrest in human MCF7/ADR cells assessed as accumulation at sub-G1 phase at 1 uM after 24 hrs by propidium iodide staining based flow cytometry (reference value: 1.08%); format: functional
# NCI/ADR-RES [6] = test: Cell cycle arrest in human MCF7/ADR cells assessed as accumulation at sub-G1 phase at 0.5 uM after 24 hrs by propidium iodide staining based flow cytometry (reference value: 1.08%); format: functional
# NCI/ADR-RES [7] = test: Cell cycle arrest in human MCF7/ADR cells assessed as accumulation at G2/M phase at 1 uM after 48 hrs by propidium iodide staining based flow cytometry (reference value: 31.94%); format: functional
# NCI/ADR-RES [8] = test: Cell cycle arrest in human MCF7/ADR cells assessed as accumulation at S-phase at 1 uM after 48 hrs by propidium iodide staining based flow cytometry (reference value: 29.45%); format: functional
# [9] = Selectivity ratio of GI50 for human MCF7 cells to GI50 for human MCF7/ADR cells; format: functional
# MCF7 [10] = test: Cell cycle arrest in human MCF7 cells assessed as accumulation at G2/M phase at 1 uM after 48 hrs by propidium iodide staining based flow cytometry (reference value: 24.26%); format: functional
# NCI/ADR-RES [11] = test: Cell cycle arrest in human MCF7/ADR cells assessed as accumulation at G0/G1 phase at 0.5 uM after 24 hrs by propidium iodide staining based flow cytometry (reference value: 45.98%); format: functional
# [12] = AUC (0 to infinity) in Sprague-Dawley rat at 10 mg/kg, iv administered as single dose by LC-MS/MS analysis; format: ADME, organism-based; parameters: dose 10 mg/kg, route intravenous, time infinity; conditions: in vivo
# NCI/ADR-RES [13] = test: Cell cycle arrest in human MCF7/ADR cells assessed as accumulation at G0/G1 phase at 1 uM after 48 hrs by propidium iodide staining based flow cytometry (reference value: 38.76%); format: functional
# NCI/ADR-RES [14] = test: Cell cycle arrest in human MCF7/ADR cells assessed as accumulation at S-phase at 0.5 uM after 48 hrs by propidium iodide staining based flow cytometry (reference value: 29.45%); format: functional
# MCF7 [15] = test: Cell cycle arrest in human MCF7 cells assessed as accumulation at G0/G1 phase at 1 uM after 24 hrs by propidium iodide staining based flow cytometry (reference value: 57.83%); format: functional
# MDA-MB-231 = test: Antiproliferative activity against human MDA-MB-231 cells after 96 hrs by MTT assay; format: functional; conditions: MDA-MB-231, 96 h
# NCI/ADR-RES [16] = test: Cell cycle arrest in human MCF7/ADR cells assessed as accumulation at G2/M phase at 1 uM after 24 hrs by propidium iodide staining based flow cytometry (reference value: 27.75%); format: functional
# MCF7 [17] = test: Antiproliferative activity against human MCF7 cells after 96 hrs by MTT assay; format: functional; conditions: MCF7, 96 h
# [18] = AUC (0 to t) in Sprague-Dawley rat at 10 mg/kg, iv administered as single dose by LC-MS/MS analysis; format: ADME, organism-based; conditions: in vivo
# NCI/ADR-RES [19] = test: Cell cycle arrest in human MCF7/ADR cells assessed as accumulation at sub-G1 phase at 0.5 uM after 48 hrs by propidium iodide staining based flow cytometry (reference value: 0.25%); format: functional
# NCI/ADR-RES [20] = test: Antiproliferative activity against human MCF7/ADR cells after 96 hrs by MTT assay; format: functional
# MCF7 [21] = test: Cell cycle arrest in human MCF7 cells assessed as accumulation at S-phase at 1 uM after 48 hrs by propidium iodide staining based flow cytometry (reference value: 18.39%); format: functional
# [22] = Plasma concentration in Sprague-Dawley rat at 10 mg/kg, iv administered as single dose measured at 8 hrs post dosing by LC-MS/MS analysis; format: ADME, organism-based
# MCF7 [23] = test: Cell cycle arrest in human MCF7 cells assessed as accumulation at G0/G1 phase at 1 uM after 48 hrs by propidium iodide staining based flow cytometry (reference value: 57.21%); format: functional
# [24] = Plasma concentration in Sprague-Dawley rat at 10 mg/kg, iv administered as single dose measured at 2 hrs post dosing by LC-MS/MS analysis; format: ADME, organism-based
# [25] = Apparent volume of distribution in Sprague-Dawley rat at 10 mg/kg, iv administered as single dose by LC-MS/MS analysis; format: ADME, organism-based; conditions: in vivo, read-out: Vz
# [26] = MRT (0 to infinity) in Sprague-Dawley rat at 10 mg/kg, iv administered as single dose by LC-MS/MS analysis; format: ADME, organism-based; conditions: in vivo
# [27] = Apparent clearance in Sprague-Dawley rat at 10 mg/kg, iv administered as single dose by LC-MS/MS analysis; format: ADME, organism-based; conditions: in vivo, read-out: CL(app) (converted)
# NCI/ADR-RES [28] = test: Cell cycle arrest in human MCF7/ADR cells assessed as accumulation at G2/M phase at 0.5 uM after 24 hrs by propidium iodide staining based flow cytometry (reference value: 27.75%); format: functional
# [29] = Plasma concentration in Sprague-Dawley rat at 10 mg/kg, iv administered as single dose measured at 24 hrs post dosing by LC-MS/MS analysis; format: ADME, organism-based
# MCF7 [30] = test: Cell cycle arrest in human MCF7 cells assessed as accumulation at G2/M phase at 1 uM after 24 hrs by propidium iodide staining based flow cytometry (reference value: 22.57%); format: functional
# [31] = Plasma concentration in Sprague-Dawley rat at 10 mg/kg, iv administered as single dose measured at 1 hr post dosing by LC-MS/MS analysis; format: ADME, organism-based
# MCF7 [32] = test: Cell cycle arrest in human MCF7 cells assessed as accumulation at sub-G1 phase at 1 uM after 24 hrs by propidium iodide staining based flow cytometry (reference value: 1.78%); format: functional
# NCI/ADR-RES [33] = test: Cell cycle arrest in human MCF7/ADR cells assessed as accumulation at sub-G1 phase at 1 uM after 48 hrs by propidium iodide staining based flow cytometry (reference value: 0.25%); format: functional
# MCF7 [34] = test: Cell cycle arrest in human MCF7 cells assessed as accumulation at sub-G1 phase at 0.5 uM after 48 hrs by propidium iodide staining based flow cytometry (reference value: 0.18%); format: functional
# MCF7 [35] = test: Cell cycle arrest in human MCF7 cells assessed as accumulation at S-phase at 0.5 uM after 24 hrs by propidium iodide staining based flow cytometry (reference value: 18.24%); format: functional
# MCF7 [36] = test: Cell cycle arrest in human MCF7 cells assessed as accumulation at sub-G1 phase at 1 uM after 48 hrs by propidium iodide staining based flow cytometry (reference value: 0.18%); format: functional
# MCF7 [37] = test: Cell cycle arrest in human MCF7 cells assessed as accumulation at S-phase at 0.5 uM after 48 hrs by propidium iodide staining based flow cytometry (reference value: 18.39%); format: functional
structure (smiles),measurement,setting,value
C[C@H]1[C@@H](Oc2ccc(-c3cc(-c4ccccc4)[nH]n3)cc2)O[C@@H]2O[C@@]3(C)CC[C@H]4[C@H](C)CC[C@@H]1[C@@]24OO3,concentration at 0.5 h,[1],583 ng/mL
same,Activity,MCF7 [2],17.38%
same,Activity,MCF7 [3],83.54%
same,Activity,NCI/ADR-RES [4],9.75%
same,Activity,NCI/ADR-RES [5],4.73%
same,Activity,NCI/ADR-RES [6],1.89%
same,Activity,NCI/ADR-RES [7],23.47%
same,Activity,NCI/ADR-RES [8],9.72%
same,RatioGI50,[9],11.7
same,Activity,MCF7 [10],11.53%
same,Activity,NCI/ADR-RES [11],50.52%
same,AUC(0-inf),[12],2920 ng·h/mL
same,Activity,NCI/ADR-RES [13],56.01%
same,Activity,NCI/ADR-RES [14],20.41%
same,Activity,MCF7 [15],72.58%
same,GI50,MDA-MB-231,240 nM
same,Activity,NCI/ADR-RES [16],23.83%
same,GI50,MCF7 [17],210 nM
same,AUC(0-t),[18],2910 ng·h/mL
same,Activity,NCI/ADR-RES [19],2.81%
same,GI50,NCI/ADR-RES [20],18 nM
same,Activity,MCF7 [21],2.14%
same,concentration at 8 h,[22],34.1 ng/mL
same,Activity,MCF7 [23],85.04%
same,concentration at 2 h,[24],227 ng/mL
same,Vd,[25],18 L/kg
same,MRT inf,[26],2.28 h
same,clearance,[27],57.7 mL/min/kg
same,Activity,NCI/ADR-RES [28],26.29%
same,concentration at 24 h,[29],2.65 ng/mL
same,Activity,MCF7 [30],16.98%
same,concentration at 1 h,[31],436 ng/mL
same,Activity,MCF7 [32],0.56%
same,Activity,NCI/ADR-RES [33],10.99%
same,Activity,MCF7 [34],0.38%
same,Activity,MCF7 [35],11.95%
same,Activity,MCF7 [36],1.44%
same,Activity,MCF7 [37],3.87%
